Source: BindingDB's records for patent US10065950 (Japan Tobacco Inc, 2018)

The compounds below were run against Gag-Pol polyprotein (Human immunodeficiency virus type 1 group M subtype B (isolate NY5), UniProt P12497) (assay: HIV Integrase Inhibitory Assay). Details: 25 °C.

COC[C@@H]1Cn2cc(-c3nnc(Cc4ccc(F)cc4)s3)c(=O)c(O)c2C(=O)N1C(C)C [US10065950, Example 3] and CCOC[C@@H]1Cn2cc(-c3nnc(Cc4ccc(F)cc4)s3)c(=O)c(O)c2C(=O)N1C(C)C [US10065950, Example 12] are within 1.5-fold of each other in IC50: 8.5 nM for the first, 7.3 nM for the second.

COC[C@H]1CN(C(C)C)C(=O)c2c(O)c(=O)c(-c3nnc(Cc4ccc(F)cc4)s3)cn21 [US10065950, Example 4] and COCCOC[C@H]1CN(C(C)C)C(=O)c2c(O)c(=O)c(-c3nnc(Cc4ccc(F)cc4)s3)cn21 [US10065950, Example 15] are within 1.5-fold of each other in IC50: 10 nM for the first, 13 nM for the second.

CC(C)N1C[C@H](C)n2cc(-c3nnc(Cc4ccc(F)cc4)s3)c(=O)c(O)c2C1=O [US10065950, Example 5] and CC(C)N1C(=O)c2c(O)c(=O)c(-c3nnc(Cc4ccc(F)cc4)s3)cn2C[C@H]1C [US10065950, Example 6] are within 1.5-fold of each other in IC50: 7.4 nM for the first, 5.6 nM for the second.

CCN1C(=O)c2c(O)c(=O)c(-c3nnc(Cc4ccc(F)cc4)s3)cn2C[C@H]1COC [US10065950, Example 9] and CCOC[C@@H]1Cn2cc(-c3nnc(Cc4ccc(F)cc4)s3)c(=O)c(O)c2C(=O)N1CC [US10065950, Example 13] are within 1.5-fold of each other in IC50: 9.1 nM for the first, 6.4 nM for the second.

COC[C@@H]1Cn2cc(-c3nnc(Cc4ccc(F)cc4)s3)c(=O)c(O)c2C(=O)N1CC1CC1 [US10065950, Example 10] and CCOC[C@@H]1Cn2cc(-c3nnc(Cc4ccc(F)cc4)s3)c(=O)c(O)c2C(=O)N1CC1CC1 [US10065950, Example 11] are within 1.5-fold of each other in IC50: 8.8 nM for the first, 6.4 nM for the second.

Going from CCN1C(=O)c2c(O)c(=O)c(-c3nnc(Cc4ccc(F)cc4)s3)cn2[C@@H](C)[C@H]1COC [US10065950, Example 14] to COCCOC[C@H]1CN(C2CC2)C(=O)c2c(O)c(=O)c(-c3nnc(Cc4ccc(F)cc4)s3)cn21 [US10065950, Example 16], the IC50 rises from 10 nM to 20 nM (2-fold). The first is the more potent here.

For CCN1C[C@](C)(C(=O)N2CCC2)n2cc(-c3ncc(Cc4ccc(F)cc4)s3)c(=O)c(O)c2C1=O [US10065950, Example 17], the IC50 was 7.9 nM.
